Laboratory results reported in PubChem BioAssay AID1963828 (Molecular Pharmacology Branch, DTP, NCI, 2024).

Tested on: 991263-137-R1-J2-PDC complex spheroid viability
Experiment: Anticancer human tumor 991263-137-R1-J2-PDC patient-derived colon adenocarcinoma cell line growth inhibition [POLQ]
Conditions: for IC50: curve of first compound; for viability, T/C: stronger effect = lower value
Method in brief: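 Growth inhibition in 3D: complex spheroids (tumor PDC, HUVEC, MSC) treated with POLQ inhibitor combinations; where Cmax unknown, highest tested concentration 10 microM, except SN-38 at 1 microM.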

[1] = second compound 0.0316 µM, first compound 0.00316 µM
[2] = second compound 0.0316 µM, first compound 0.01 µM
[3] = second compound 0.0316 µM, first compound 0.0316 µM
[4] = second compound 0.0316 µM, first compound 0.1 µM
[5] = second compound 0.0316 µM, first compound 0.316 µM
[6] = second compound 0.0316 µM, first compound 1 µM
[7] = second compound 0.1 µM, first compound 0.00316 µM
[8] = second compound 0.1 µM, first compound 0.01 µM
[9] = second compound 0.1 µM, first compound 0.0316 µM
[10] = second compound 0.1 µM, first compound 0.1 µM
[11] = second compound 0.1 µM, first compound 0.316 µM
[12] = second compound 0.1 µM, first compound 1 µM
[13] = second compound 0.316 µM, first compound 0.00316 µM
[14] = second compound 0.316 µM, first compound 0.01 µM
[15] = second compound 0.316 µM, first compound 0.0316 µM
[16] = second compound 0.316 µM, first compound 0.1 µM
[17] = second compound 0.316 µM, first compound 0.316 µM
[18] = second compound 0.316 µM, first compound 1 µM
[19] = second compound 1 µM, first compound 0.00316 µM
[20] = second compound 1 µM, first compound 0.01 µM
[21] = second compound 1 µM, first compound 0.0316 µM
[22] = second compound 1 µM, first compound 0.1 µM
[23] = second compound 1 µM, first compound 0.316 µM
[24] = second compound 1 µM, first compound 1 µM
[25] = second compound 3.16 µM, first compound 0.00316 µM
[26] = second compound 3.16 µM, first compound 0.01 µM
[27] = second compound 3.16 µM, first compound 0.0316 µM
[28] = second compound 3.16 µM, first compound 0.1 µM
[29] = second compound 3.16 µM, first compound 0.316 µM
[30] = second compound 3.16 µM, first compound 1 µM
[31] = second compound 10 µM, first compound 0.00316 µM
[32] = second compound 10 µM, first compound 0.01 µM
[33] = second compound 10 µM, first compound 0.0316 µM
[34] = second compound 10 µM, first compound 0.1 µM
[35] = second compound 10 µM, first compound 0.316 µM
[36] = second compound 10 µM, first compound 1 µM
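Note: spheroids exposed to compounds for 7 days before readout.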
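Throughout, for viability, T/C: 100% = DMSO vehicle control viability.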

Work on `C=CCn1c(=O)c2cnc(Nc3ccc(N4CCN(C)CC4)cc3)nc2n1-c1cccc(C(C)(C)O)n1` + Cc1cccc(N(C)C(=O)C2C(O)CCN2c2nc(C)cc(C(F)(F)F)c2C#N)c1 yielded an IC50 (second compound 0.0316 µM) of over 1 µM, an IC50 (second compound 0.1 µM) of over 1 µM and an IC50 (second compound 0.316 µM) of over 1 µM. The IC50 (second compound 1 µM) was over 1 µM, the IC50 (second compound 3.16 µM) was over 1 µM and the IC50 (second compound 10 µM) was over 1 µM. The viability, T/C [1] was 103%, the viability, T/C [2] was 114% and the viability, T/C [3] was 103%. The viability, T/C [4] was 115%, the viability, T/C [5] was 101% and the viability, T/C [6] was 93%. It also gave a viability, T/C [7] of 108%, a viability, T/C [8] of 110% and a viability, T/C [9] of 107%. It also gave a viability, T/C [10] of 102%, a viability, T/C [11] of 108% and a viability, T/C [12] of 90.1%. The viability, T/C [13] was 115%, the viability, T/C [14] was 103% and the viability, T/C [15] was 98.1%. It also gave a viability, T/C [16] of 119%, a viability, T/C [17] of 108% and a viability, T/C [18] of 102%. The viability, T/C [19] was 99.1%, the viability, T/C [20] was 101% and the viability, T/C [21] was 96%. The viability, T/C [22] was 97.6%, the viability, T/C [23] was 110% and the viability, T/C [24] was 94.2%. For the same compound, the viability, T/C [25] was 100%, the viability, T/C [26] was 101% and the viability, T/C [27] was 98.4%. The viability, T/C [28] was 101%, the viability, T/C [29] was 103% and the viability, T/C [30] was 98.3%. For the same compound, the viability, T/C [31] was 98.8%, the viability, T/C [32] was 110% and the viability, T/C [33] was 99.5%. The viability, T/C [34] was 106%, the viability, T/C [35] was 105% and the viability, T/C [36] was 95.2%.
For `CCCS(=O)(=O)Nc1ccc(F)c(C(=O)c2c[nH]c3ncc(-c4ccc(Cl)cc4)cc23)c1F` + Cc1cccc(N(C)C(=O)C2C(O)CCN2c2nc(C)cc(C(F)(F)F)c2C#N)c1, the IC50 (second compound 0.0316 µM) was over 10 µM, the IC50 (second compound 0.1 µM) was over 10 µM and the IC50 (second compound 0.316 µM) was over 10 µM. The IC50 (second compound 1 µM) was over 10 µM, the IC50 (second compound 3.16 µM) was over 10 µM and the IC50 (second compound 10 µM) was over 10 µM. The viability, T/C [3] was 112%, the viability, T/C [4] was 98.6% and the viability, T/C [5] was 98%. It also gave a viability, T/C [6] of 103%, a viability, T/C (second compound 0.0316 µM, first compound 3.16 µM) of 106% and a viability, T/C (second compound 0.0316 µM, first compound 10 µM) of 99.9%. The viability, T/C [9] was 103%, the viability, T/C [10] was 109% and the viability, T/C [11] was 105%. For the same compound, the viability, T/C [12] was 114%, the viability, T/C (second compound 0.1 µM, first compound 3.16 µM) was 106% and the viability, T/C (second compound 0.1 µM, first compound 10 µM) was 104%. For the same compound, the viability, T/C [15] was 101%, the viability, T/C [16] was 102% and the viability, T/C [17] was 85.2%. It also gave a viability, T/C [18] of 97.5%, a viability, T/C (second compound 0.316 µM, first compound 3.16 µM) of 101% and a viability, T/C (second compound 0.316 µM, first compound 10 µM) of 106%. For the same compound, the viability, T/C [21] was 96.8%, the viability, T/C [22] was 97.5% and the viability, T/C [23] was 95.5%. The viability, T/C [24] was 95.7%, the viability, T/C (second compound 1 µM, first compound 3.16 µM) was 100% and the viability, T/C (second compound 1 µM, first compound 10 µM) was 92.3%. For the same compound, the viability, T/C [27] was 99.8%, the viability, T/C [28] was 96.7% and the viability, T/C [29] was 93.5%. The viability, T/C [30] was 99.1%, the viability, T/C (second compound 3.16 µM, first compound 3.16 µM) was 109% and the viability, T/C (second compound 3.16 µM, first compound 10 µM) was 84.5%. For the same compound, the viability, T/C [33] was 101%, the viability, T/C [34] was 98.5% and the viability, T/C [35] was 97.3%. For the same compound, the viability, T/C [36] was 92.5%, the viability, T/C (second compound 10 µM, first compound 3.16 µM) was 101% and the viability, T/C (second compound 10 µM, first compound 10 µM) was 89.2%.
For `CC[C@@]1(O)C(=O)OCc2c1cc1n(c2=O)Cc2cc3c(CN(C)C)c(O)ccc3nc2-1` + Cc1cccc(N(C)C(=O)C2C(O)CCN2c2nc(C)cc(C(F)(F)F)c2C#N)c1, the IC50 (second compound 0.0316 µM) was over 0.1 µM, the IC50 (second compound 0.1 µM) was over 0.1 µM and the IC50 (second compound 0.316 µM) was over 0.1 µM. The IC50 (second compound 1 µM) was over 0.1 µM, the IC50 (second compound 3.16 µM) was over 0.1 µM and the IC50 (second compound 10 µM) was over 0.1 µM. The viability, T/C (second compound 0.0316 µM, first compound 0.000316 µM) was 111%, the viability, T/C (second compound 0.0316 µM, first compound 0.001 µM) was 115% and the viability, T/C [1] was 111%. It also gave a viability, T/C [2] of 106%, a viability, T/C [3] of 114% and a viability, T/C [4] of 97.3%. For the same compound, the viability, T/C (second compound 0.1 µM, first compound 0.000316 µM) was 112%, the viability, T/C (second compound 0.1 µM, first compound 0.001 µM) was 111% and the viability, T/C [7] was 94%. The viability, T/C [8] was 118%, the viability, T/C [9] was 105% and the viability, T/C [10] was 92.8%. For the same compound, the viability, T/C (second compound 0.316 µM, first compound 0.000316 µM) was 117%, the viability, T/C (second compound 0.316 µM, first compound 0.001 µM) was 130% and the viability, T/C [13] was 101%. It also gave a viability, T/C [14] of 95.9%, a viability, T/C [15] of 101% and a viability, T/C [16] of 91.4%. For the same compound, the viability, T/C (second compound 1 µM, first compound 0.000316 µM) was 111%, the viability, T/C (second compound 1 µM, first compound 0.001 µM) was 114% and the viability, T/C [19] was 109%. The viability, T/C [20] was 118%, the viability, T/C [21] was 110% and the viability, T/C [22] was 81.5%. The viability, T/C (second compound 3.16 µM, first compound 0.000316 µM) was 101%, the viability, T/C (second compound 3.16 µM, first compound 0.001 µM) was 98.3% and the viability, T/C [25] was 98.2%. The viability, T/C [26] was 86.6%, the viability, T/C [27] was 96.2% and the viability, T/C [28] was 91.3%. It also gave a viability, T/C (second compound 10 µM, first compound 0.000316 µM) of 117%, a viability, T/C (second compound 10 µM, first compound 0.001 µM) of 120% and a viability, T/C [31] of 108%. For the same compound, the viability, T/C [32] was 97.5%, the viability, T/C [33] was 90.8% and the viability, T/C [34] was 77%.
